In PubChem BioAssay (NCI):
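Method: 48-hour compound exposure of cells in 96-well plates, five concentrations, linear interpolation of endpoints. At the TGI there is no net growth.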

Assays:
Experiment in all cases: growth of human tumour cells (NCI), 48 h
[1] = system: SK-MEL-2 melanoma
[2] = system: HOP-62 NSCLC
[3] = system: SF-539 CNS
[4] = system: NCI-H460 lung
[5] = system: SK-MEL-28 melanoma
[6] = system: CCRF-CEM leukemia
[7] = system: MCF7 breast
[8] = system: UACC-62 melanoma
[9] = system: OVCAR-4 ovarian
[10] = system: SF-295 CNS
[11] = system: UO-31 renal
[12] = system: HL-60(TB) leukemia
[13] = system: HCT-15 colon
[14] = system: MOLT-4 leukemia
[15] = system: ACHN renal
[16] = system: K-562 leukemia
[17] = system: A549 NSCLC
[18] = system: NCI-H23 lung
[19] = system: CAKI-1 renal
[20] = system: OVCAR-8 ovarian
[21] = system: COLO 205 colon
[22] = system: BT-549 breast
[23] = system: NCI-H522 lung
[24] = system: HCT-116 colon
[25] = system: MALME-3M melanoma
[26] = system: RPMI-8226 leukemia
[27] = system: IGROV1 ovarian
[28] = system: SW-620 colon
[29] = system: M14 melanoma
[30] = system: MDA-MB-435
[31] = system: KM12 colon
[32] = system: LOX IMVI melanoma
[33] = system: 786-0 renal
[34] = system: HCC-2998 colon
[35] = system: NCI/ADR-RES ovarian
[36] = system: OVCAR-5 ovarian
[37] = system: OVCAR-3 ovarian
[38] = system: EKVX NSCLC
[39] = system: SF-268 CNS
[40] = system: HT29 colon
[41] = system: PC-3 prostate
[42] = system: DU-145 prostate
[43] = system: MDA-N
[44] = system: A498 renal
[45] = system: SNB-19 CNS
[46] = system: HS 578T breast
[47] = system: SK-OV-3 ovarian
[48] = system: SK-MEL-5 melanoma
[49] = system: UACC-257 melanoma
[50] = system: SR leukemia
[51] = system: U251 CNS
[52] = system: MDA-MB-231 breast
[53] = system: HOP-92 NSCLC
[54] = system: NCI-H226 lung
[55] = system: SNB-75 CNS
[56] = system: SN12C renal
[57] = system: TK-10 renal

With `COC(=O)[C@](NC(=O)OCc1ccccc1)([C@@H](C)Sc1ccc(C)cc1)C(F)(F)F` as the molecule, how does the TGI [1] read?
The TGI was over 100 µM.

What about the TGI [2] of the same molecule?
The TGI was over 100 µM.

And the TGI [3]?
Its TGI is over 100 µM.

What about the TGI [4] of the same molecule?
The TGI was over 100 µM.

And the TGI [5]?
The TGI was over 100 µM.

And the TGI [6]?
The TGI was 50.7 µM.

And the TGI [7]?
The TGI was over 100 µM.

And the TGI [8]?
The TGI was over 100 µM.

What about the TGI [9] of the same molecule?
The TGI was over 100 µM.

And the TGI [10]?
The TGI was over 100 µM.

And the TGI [11]?
Its TGI is over 100 µM.

And the TGI [12]?
The TGI was 78.3 µM.

What about the TGI [13] of the same molecule?
The TGI was over 100 µM.

And the TGI [14]?
The TGI was over 100 µM.

What about the TGI [15] of the same molecule?
Its TGI is over 100 µM.

What about the TGI [16] of the same molecule?
The TGI was over 100 µM.

What about the TGI [17] of the same molecule?
Its TGI is over 100 µM.

And the TGI [18]?
The TGI was 58.5 µM.

What about the TGI [19] of the same molecule?
The TGI was over 100 µM.

What about the TGI [20] of the same molecule?
The TGI was 60 µM.

And the TGI [21]?
The TGI was 38.4 µM.

What about the TGI [22] of the same molecule?
The TGI was over 100 µM.

And the TGI [23]?
The TGI was over 100 µM.

And the TGI [24]?
Its TGI is over 100 µM.

And the TGI [25]?
The TGI was over 100 µM.

What about the TGI [26] of the same molecule?
The TGI was over 100 µM.

And the TGI [27]?
Its TGI is over 100 µM.

And the TGI [28]?
The TGI was over 100 µM.

What about the TGI [29] of the same molecule?
The TGI was over 100 µM.

And the TGI [30]?
Its TGI is over 100 µM.

What about the TGI [31] of the same molecule?
Its TGI is over 100 µM.

And the TGI [32]?
The TGI was over 100 µM.

What about the TGI [33] of the same molecule?
Its TGI is over 100 µM.

What about the TGI [34] of the same molecule?
The TGI was over 100 µM.

What about the TGI [35] of the same molecule?
Its TGI is over 100 µM.

What about the TGI [36] of the same molecule?
The TGI was over 100 µM.

And the TGI [37]?
Its TGI is over 100 µM.

And the TGI [38]?
The TGI was over 100 µM.

And the TGI [39]?
Its TGI is over 100 µM.

And the TGI [40]?
The TGI was over 100 µM.

What about the TGI [41] of the same molecule?
Its TGI is over 100 µM.

What about the TGI [42] of the same molecule?
Its TGI is over 100 µM.

What about the TGI [43] of the same molecule?
Its TGI is over 100 µM.

What about the TGI [44] of the same molecule?
Its TGI is over 100 µM.

What about the TGI [45] of the same molecule?
Its TGI is over 100 µM.

And the TGI [46]?
The TGI was over 100 µM.

What about the TGI [47] of the same molecule?
Its TGI is over 100 µM.

What about the TGI [48] of the same molecule?
Its TGI is 38.2 µM.

What about the TGI [49] of the same molecule?
The TGI was over 100 µM.

And the TGI [50]?
Its TGI is over 100 µM.

And the TGI [51]?
Its TGI is over 100 µM.

How did the TGI [52] turn out when `CC1(C)CC2=C(SC3C=CC=CC3N2)C(=O)C1C(=O)C(N)=O` (stereo not drawn) was run?
The TGI was over 100 µM.

What about the TGI [1] of the same molecule?
The TGI was over 100 µM.

And the TGI [2]?
The TGI was over 100 µM.

And the TGI [3]?
Its TGI is over 100 µM.

And the TGI [4]?
The TGI was over 100 µM.

What about the TGI [5] of the same molecule?
The TGI was over 100 µM.

And the TGI [6]?
Its TGI is over 100 µM.

And the TGI [7]?
The TGI was over 100 µM.

And the TGI [8]?
The TGI was over 100 µM.

What about the TGI [9] of the same molecule?
The TGI was over 100 µM.

And the TGI [10]?
Its TGI is over 100 µM.

And the TGI [11]?
Its TGI is over 100 µM.

What about the TGI [12] of the same molecule?
Its TGI is over 100 µM.

What about the TGI [13] of the same molecule?
The TGI was over 100 µM.

And the TGI [53]?
Its TGI is over 100 µM.

What about the TGI [14] of the same molecule?
The TGI was over 100 µM.

What about the TGI [15] of the same molecule?
Its TGI is over 100 µM.

And the TGI [17]?
The TGI was over 100 µM.

What about the TGI [18] of the same molecule?
Its TGI is over 100 µM.

What about the TGI [19] of the same molecule?
The TGI was over 100 µM.

What about the TGI [20] of the same molecule?
The TGI was over 100 µM.

What about the TGI [21] of the same molecule?
The TGI was over 100 µM.

And the TGI [22]?
The TGI was over 100 µM.

What about the TGI [23] of the same molecule?
The TGI was over 100 µM.

What about the TGI [24] of the same molecule?
The TGI was over 100 µM.

What about the TGI [27] of the same molecule?
Its TGI is over 100 µM.

What about the TGI [54] of the same molecule?
The TGI was over 100 µM.

What about the TGI [28] of the same molecule?
The TGI was over 100 µM.

What about the TGI [29] of the same molecule?
Its TGI is over 100 µM.

And the TGI [30]?
The TGI was over 100 µM.

And the TGI [55]?
The TGI was over 100 µM.

And the TGI [31]?
Its TGI is over 100 µM.

What about the TGI [56] of the same molecule?
The TGI was over 100 µM.

What about the TGI [32] of the same molecule?
The TGI was over 100 µM.

What about the TGI [33] of the same molecule?
The TGI was over 100 µM.

And the TGI [34]?
The TGI was over 100 µM.

What about the TGI [35] of the same molecule?
Its TGI is over 100 µM.

And the TGI [36]?
The TGI was over 100 µM.

And the TGI [37]?
Its TGI is over 100 µM.

And the TGI [38]?
Its TGI is over 100 µM.

And the TGI [39]?
Its TGI is over 100 µM.

And the TGI [40]?
Its TGI is over 100 µM.

And the TGI [41]?
Its TGI is over 100 µM.

What about the TGI [42] of the same molecule?
The TGI was over 100 µM.

And the TGI [43]?
Its TGI is over 100 µM.

And the TGI [45]?
Its TGI is over 100 µM.

And the TGI [46]?
Its TGI is over 100 µM.

And the TGI [47]?
Its TGI is over 100 µM.

And the TGI [48]?
The TGI was over 100 µM.

And the TGI [57]?
The TGI was over 100 µM.

And the TGI [49]?
The TGI was over 100 µM.

What about the TGI [51] of the same molecule?
Its TGI is over 100 µM.
